Four molecules from patent publication US20080014278A1, “METAL-CONTAINING FORMULATIONS AND METHODS OF USE” (priority 2006, published 2008) can be followed below.

Converted amounts (≈) assume the structure as drawn.

Test [1] concerns Escherichia coli. The experiment in a line: MIC assay (microdilution). The format is cell-based.
For test [2], the system named is Enterobacter cloacae. The experiment in a line: MIC assay (microdilution). The class given is cell-based. The following applies: Ent. cloacae. For orientation: Dilution methods test growth across graded concentrations, often in twofold steps.
In test [3] the test system is DNBS-induced colitis. The experiment in a line: DNBS-induced colitis in rat, colon histopathology. The class given is in vivo, Sprague-Dawley rats. As to the method: Histopathology: A piece of colonic tissue at 2-4 cm proximal to the anus was excised and fixed in 10% formalin and the sections were stained with hematoxylin and eosin. The remaining length of the colonic tissues was stored at −80° C. for subsequent biochemical assays. The histology slides were examined by a veterinary pathologist who was blinded to the treatment groups. The extent of microscopic mucosal damage of the colon was scored on scale of 0-5 as described with slight modification: 0=normal histological appearance; 1=histological damage limited to surface epithelium, mild infiltration of the submucosa; 2=focal ulceration and cell disruption limited to mucosa, abnormal appearance of colonic wall, mild infiltration of inflammatory cells; 3=focal, transmural inflammation and ulceration, with mild to moderate infiltration of inflammatory cells; 4=Extensive transmural ulceration and inflammation bordered by areas of normal mucosa, moderate infiltration of inflammatory cells; 5=extensive transmural ulceration and inflammation involving entire section from epithelium to serosa, severe infiltration of inflammatory cells.
Statistical Analysis: The results are expressed as the mean ±SE. […] The data were calculated with the aid of Instat Graph Pad Software. […]

For test [4], the system named is IL-1β. The experiment in a line: Immunohistochemistry of colonic tissue. The class given is in vivo, rat. Particulars: five days oral treatment. As to the method:
(§1) Immunohistochemistry: A Universal Streptavidin/Biotin detection system (Thermo Shandon, Pittsburgh, Pa.) was used for immunohistochemical staining of formalin fixed, paraffin embedded biopsies of the colon. After dewaxing, and hydration, sections were treated with protein blocking agent to reduce non-specific binding of antibodies. The tissues were then incubated with rabbit anti-rat TNF-α, or mouse anti-rat IL-12 p70 antibodies (Biosource International, Inc, Camarillo, Calif.); rabbit anti-rat IL-1β (Serotec, Raleigh, N.C.) or rabbit anti-rat MMP-9 antibody (Chemicon International, Telecuma, Calif.) in 1% bovine serum albumin in phosphate buffered saline. Incubations with secondary antibodies, streptavidin/biotin, and chromogenic detection of peroxidase were performed according to the manufacturer's protocol. Sections were counterstained, dehydrated, mounted and examined. The intensity of the immuno-peroxidase staining was graded as described previously. Expression of cytokines was graded as: 0, no staining in the section; 1, less than 25% of the section; 2, 25-50% of the section; 3, 50-75% of the section; 4, >75% of the section with significant staining.

In test [5] the test system is MMP-9. The experiment in a line: Immunohistochemistry of colonic tissue. The following applies: vs placebo and no treatment. The format is in vivo, rat. How it is done: as §1
The test system of test [6] is TNF-α. The experiment in a line: Immunohistochemistry of colonic tissue. Particulars: five days oral treatment. The format is in vivo, rat. As to the method: as §1
For test [7], the system named is DNBS-induced colitis. The experiment in a line: DNBS-induced colitis in rat, macroscopic observations (body weight, total IBD score). The format is in vivo, Sprague-Dawley rats. The following applies: for total IBD score: vs placebo.
Source text: Animals: Male Sprague-Dawley rats, weighing approximately 250-300 gm were purchased from Charles River Laboratories (Raleigh, N.C.). The animals were housed under standard conditions with free access to food and water. They were acclimatized for 2-3 days before commencing the experiments. The study protocol was approved by the Institutional Animal Care and Use Committees (IACUC).
Induction of ulcerative colitis: Colitis was produced according to published methods. Animals were anesthetized by intraperitoneal injection of 75 mg/kg of ketamine plus 5 mg/kg of xylazine. A single intracolonic injection of 120 mg/ml of dinitrobenzenesulfonic acid (DNBS) (Sigma Chemicals, St. Louis, Mo.) in 250 micro liter of 50% ethanol was administered through a Tom Cat catheter (Kendall Sovereign, Mansfield, Mass.) with a closed-end tip, connected to a 1 ml syringe and placed 7 cm proximal to the anus. Lubricant was applied to the tip of the catheter before injection, to protect from mucosal injury. After instillation of DNBS, 0.5 ml of air was insufflated and the catheter was removed.
Sulfasalazine (Sigma Chemicals, St Louis, Mo.), at a concentration of 120 mg/ml for intracolonic treatment and 30 mg/ml for oral treatment was used as the reference drug in all the experiments. Sulfasalazine was first dissolved in 0.1M NaOH at a concentration about 30-fold higher than the required final concentration, and then suspended in 1.5% PVA for oral dosing and 5.7% PVA for intracolonic dosing.
One group was not treated and served as no treatment group. Treatment began one day after administration of DNBS.
Macroscopic Observations: Body weight was recorded daily and the animals were examined for their physical appearance. After five days of treatment, animals were sacrificed. The colon was excised between the ileocecal junction and rectum, and opened longitudinally. After scoring of the consistency of the stool the colon was rinsed in normal saline, examined and thickness of the colonic wall and number and size of ulcers were scored. Stool consistency was graded on a scale of 0-3: 0=normal stool, well formed pellets rigid as normal; 1=loose stool, formed pellet with moisture, soft stool keeping in stool shape; 2=loose stool, stools that have abnormal form with much moisture, softer shapeless stool; 3=watery or bloody diarrhea.
Thickness of colonic wall was graded on a scale of 0-4: 0=normal, no thickness; 1=mild thickness in lower portion of the colon; 2=moderate thickness in localized area; 3=moderate thickness extending to the central portion of the colon; 4=severe thickness in the whole colon. Colonic ulceration was graded on a scale of 0-10: 0=no ulcers; 1=one small ulcer less than 2-3 mm; 2=one large ulcer more than 2-3 mm; 3=two large ulcerations more than 2-3 mm in diameter; 4=two or more sites of ulcerations extending 1 cm along the length; 5-10=when an area of ulceration extended more than 1 cm along the length of the colon, the score increases by 1 for each additional cm of involvement. The total IBD score, obtained by the sum of the scores of colonic ulcer, colon thickness and stool consistency for each animal, was calculated for each treatment group.
Statistical Analysis: The results are expressed as the mean ±SE. The statistical significance in the mean total IBD score, histopathological inflammation score, and the immunohistochemical staining of cytokines or MMP-9 was determined using Tukey-Kramer's multiple comparison tests following one-way analysis of variance (ANOVA). The data were calculated with the aid of Instat Graph Pad Software. Differences with a P value less than 0.05 were considered significant.
Methods: Colitis was induced in rats using DNBS as described in Example 25. Animals were treated intracolonically (250 μl of the test reagents) once a day for five days. […] Methods: Colitis was induced in rats using DNBS as described in Example 25. Animals were treated intracolonically (250 μl of the test reagents) once a day for five days.
The test system of test [8] is Pseudomonas aeruginosa. The experiment in a line: MIC assay (microdilution). The class given is cell-based.
For test [9], the system named is Streptococcus pyogenes. The experiment in a line: MIC assay (microdilution). The following applies: lactate solutions, nanocrystalline silver: range for 12 samples. The format is cell-based.
The test system of test [10] is Staphylococcus epidermidis. The experiment in a line: MIC assay (microdilution). The format is cell-based. The following applies: lactate solutions; S. epiderm (ATCC); nanocrystalline silver: range for 12 samples.
Test [11] has as its system Streptococcus pneumoniae. The experiment in a line: MIC assay (microdilution). The class given is cell-based. Particulars: lactate solutions, nanocrystalline silver: range for 12 samples.
Test [12] has as its system Mycobacterium tuberculosis H37Ra. The format is cell-based.
For test [13], the system named is Staphylococcus aureus. The experiment in a line: MIC assay (microdilution). Particulars: lactate solutions, nanocrystalline silver: range for 12 samples. The format is cell-based.

Consider `OO` [Sample H2O2, hydrogen peroxide], for which the MIC in test [1] (E. coli, SOD/catalase +) is above 500 µg/mL; in test [1] (E. coli, SOD/catalase −) it was 31 µg/mL (≈ 911 µM); in [2] (SOD/catalase +), above 500 µg/mL; in [2] (SOD/catalase −), 63 µg/mL (≈ 1850 µM).
With `O=C(O)c1cc(/N=N/c2ccc(S(=O)(=O)Nc3ccccn3)cc2)ccc1O` [sulfasalazine, salicylazosulfapyridine], the histopathological inflammation score entry in test [3] (oral 100 mg/kg, vs placebo and untreated) is listed as “significantly reduced the histopathological inflammation”. The “colon sections (hematoxylin and eosin)” value in test [3] (oral, 40 mg/kg nanocrystalline silver, 100 mg/kg sulfasalazine) was “healed mucosa and few residual inflammatory infiltrate”. The “expression of IL-1β (immunohistochemical staining)” value in [4] is reported as “significantly reduced the expression”. The “expression of MMP-9 (immunohistochemical staining)” value in test [5] was “significantly reduced the expression of MMP-9”. Moreover, the “expression of TNF-α (immunohistochemical staining)” value in [6] was “significantly reduced the expression”. For the same molecule, the body weight result in test [7] (DNBS colitis rats, intracolonic or oral treatment) is listed as “started gaining body weight after one day of treatment”. Also, the “total IBD score” value in test [7] (Example 27, 100 mg/kg) is “significantly reduced total IBD score”; in [7] (Example 28, 100 mg/kg) it was “significantly reduced total IBD score”.
As to Benzalkonium chloride [BAC], the MIC in [8] (P. aeruginosa isolate NP220 (BAC-sensitive)) amounted to 63 µg/mL; in [8] (P. aeruginosa isolate NP221 (BAC-resistant)), 4000 µg/mL; in [8] (P. aeruginosa isolate NP222 (BAC-sensitive)), 63 µg/mL.
Regarding silver oxide [Ag2O], the MIC in test [9] (S. pyog (clin. 303)) came out at 2 µg/mL; in test [9] (S. pyog (clin. 304)), 3 µg/mL; in test [1] (lactate solutions, E. coli (ATCC), nanocrystalline silver: range for 12 samples), 0.8 µg/mL; in [10] it was 2 µg/mL; in test [11] (S. pneumo (clin 314)), 3 µg/mL; in test [11] (S. pneumo (clin 315)) it was 2 µg/mL. The MIC turned out to be 2.5 μg/ml silver in test [12]; 0.8 µg/mL in test [8] (lactate solutions, P. aerug (ATCC), nanocrystalline silver: range for 12 samples); 2 µg/mL in [8] (lactate solutions, P. aerug. (clin.), nanocrystalline silver: range for 12 samples); 3 µg/mL in test [13] (S. aureus (ATCC)); 6 µg/mL in test [13] (S. aureus (clin.)). In addition, the “total IBD score” value is “unable to show significant reduction of total IBD score” in test [7] (Example 27, 0.25% homogenized, intracolonic, five days); “unable to show significant reduction of total IBD score” in test [7] (Example 27, 0.5% homogenized, intracolonic, five days); “significantly reduced the total IBD score” in test [7] (Example 27, 0.5% sonicated nanodispersion, 250 μl intracolonically once a day for five days); “but not 0.15% and 0.05%” in test [7] (Example 28, 0.05% nanodispersion, intracolonic, five days); “but not 0.15% and 0.05%” in test [7] (Example 28, 0.15% nanodispersion, intracolonic, five days); “significantly reduced the total IBD score” in [7] (Example 28, 0.5% sonicated nanodispersion, 250 μl intracolonically once a day for five days). For the same molecule, in test [7] (Example 28, 1.5% nanodispersion, intracolonic, five days), the “total IBD score” value was “significantly reduced the total IBD score”.
